Here are results for five molecules from US8927501B2, “αvβ6 peptide ligands and their uses” (priority 2005, dated 2015).

Where a SMILES comes first, the peptide text is derived from it.

For assay [1], the target named is T1, αvβ6 (Homo sapiens, UniProt P06756+P18564).
T1 construct: endogenous in cells; host or cells: VB6 human oral squamous cell carcinoma
The experiment in a line: Cell adhesion assay: αvβ6-dependent adhesion of VB6 cells to LAP. Format: cell-based.

In assay [2] the test system is A375Pβ6puro. Format: cell-based, human.
In assay [3] the test system is A375Ppuro. Type of assay: cell-based, human.
For assay [4], the target named is αvβ6 (UniProt P18564+P43406). The experiment in a line: cell-based. On the set-up: species or system mouse.
Assay [5] deals with T2, rsαvβ6 (Homo sapiens, UniProt P06756+P18564). The experiment in a line: biochemical. Format: binding.
Assay [6] has as its target T2, rsαvβ6. Kind of assay: biochemical. Type of assay: binding. This is another data set of the same source.

Chain of αvβ6 (UniProt P18564+P43406) (P43406 31-1044 limits assumed): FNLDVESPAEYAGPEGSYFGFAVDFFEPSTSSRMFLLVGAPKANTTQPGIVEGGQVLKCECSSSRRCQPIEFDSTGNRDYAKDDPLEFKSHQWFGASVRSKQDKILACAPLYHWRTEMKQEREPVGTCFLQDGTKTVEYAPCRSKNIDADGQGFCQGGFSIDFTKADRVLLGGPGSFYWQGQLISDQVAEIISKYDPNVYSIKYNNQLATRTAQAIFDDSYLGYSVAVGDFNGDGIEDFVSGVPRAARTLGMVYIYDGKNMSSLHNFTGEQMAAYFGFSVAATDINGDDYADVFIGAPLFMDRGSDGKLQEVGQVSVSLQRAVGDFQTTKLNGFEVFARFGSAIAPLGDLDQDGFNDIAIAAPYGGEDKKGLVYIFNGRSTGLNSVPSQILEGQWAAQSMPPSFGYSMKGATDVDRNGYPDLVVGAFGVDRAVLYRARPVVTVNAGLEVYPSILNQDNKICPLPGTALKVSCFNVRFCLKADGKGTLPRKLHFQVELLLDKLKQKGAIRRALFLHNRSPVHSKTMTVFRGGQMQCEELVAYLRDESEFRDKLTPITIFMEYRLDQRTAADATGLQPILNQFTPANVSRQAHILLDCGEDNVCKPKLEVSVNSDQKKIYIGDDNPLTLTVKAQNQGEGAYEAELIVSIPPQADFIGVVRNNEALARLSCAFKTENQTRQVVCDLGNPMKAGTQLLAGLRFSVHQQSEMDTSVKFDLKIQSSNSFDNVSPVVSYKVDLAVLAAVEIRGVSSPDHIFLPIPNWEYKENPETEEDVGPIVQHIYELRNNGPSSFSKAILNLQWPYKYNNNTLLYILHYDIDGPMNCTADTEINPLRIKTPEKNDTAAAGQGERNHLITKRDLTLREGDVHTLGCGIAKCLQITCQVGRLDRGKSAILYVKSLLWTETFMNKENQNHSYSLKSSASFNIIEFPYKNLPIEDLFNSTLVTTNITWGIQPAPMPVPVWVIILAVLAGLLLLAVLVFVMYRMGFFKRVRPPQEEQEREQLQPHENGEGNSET
Chain of αvβ6 (UniProt P18564+P43406) (P18564 22-788 limits assumed): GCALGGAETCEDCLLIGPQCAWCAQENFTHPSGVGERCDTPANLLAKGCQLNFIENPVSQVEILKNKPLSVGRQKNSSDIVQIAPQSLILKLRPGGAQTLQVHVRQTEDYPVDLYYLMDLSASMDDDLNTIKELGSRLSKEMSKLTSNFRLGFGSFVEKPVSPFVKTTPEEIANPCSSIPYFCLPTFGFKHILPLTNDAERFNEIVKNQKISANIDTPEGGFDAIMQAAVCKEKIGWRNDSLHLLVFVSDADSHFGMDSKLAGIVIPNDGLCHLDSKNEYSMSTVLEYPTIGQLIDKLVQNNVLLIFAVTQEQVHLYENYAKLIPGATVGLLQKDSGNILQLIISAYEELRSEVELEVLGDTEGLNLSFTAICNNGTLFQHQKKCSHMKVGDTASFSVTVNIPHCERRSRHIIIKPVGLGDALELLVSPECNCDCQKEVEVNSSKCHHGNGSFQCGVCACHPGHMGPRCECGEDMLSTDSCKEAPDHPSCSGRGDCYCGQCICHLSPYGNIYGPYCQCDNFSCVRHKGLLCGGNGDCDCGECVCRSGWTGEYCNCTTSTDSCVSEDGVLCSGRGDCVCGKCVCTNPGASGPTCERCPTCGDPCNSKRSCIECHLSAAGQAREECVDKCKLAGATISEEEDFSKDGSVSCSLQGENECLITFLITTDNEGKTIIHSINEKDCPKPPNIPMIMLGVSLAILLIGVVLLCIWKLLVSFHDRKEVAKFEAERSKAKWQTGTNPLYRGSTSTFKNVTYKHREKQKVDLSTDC
T2 sequence (P06756 31-992 limits assumed): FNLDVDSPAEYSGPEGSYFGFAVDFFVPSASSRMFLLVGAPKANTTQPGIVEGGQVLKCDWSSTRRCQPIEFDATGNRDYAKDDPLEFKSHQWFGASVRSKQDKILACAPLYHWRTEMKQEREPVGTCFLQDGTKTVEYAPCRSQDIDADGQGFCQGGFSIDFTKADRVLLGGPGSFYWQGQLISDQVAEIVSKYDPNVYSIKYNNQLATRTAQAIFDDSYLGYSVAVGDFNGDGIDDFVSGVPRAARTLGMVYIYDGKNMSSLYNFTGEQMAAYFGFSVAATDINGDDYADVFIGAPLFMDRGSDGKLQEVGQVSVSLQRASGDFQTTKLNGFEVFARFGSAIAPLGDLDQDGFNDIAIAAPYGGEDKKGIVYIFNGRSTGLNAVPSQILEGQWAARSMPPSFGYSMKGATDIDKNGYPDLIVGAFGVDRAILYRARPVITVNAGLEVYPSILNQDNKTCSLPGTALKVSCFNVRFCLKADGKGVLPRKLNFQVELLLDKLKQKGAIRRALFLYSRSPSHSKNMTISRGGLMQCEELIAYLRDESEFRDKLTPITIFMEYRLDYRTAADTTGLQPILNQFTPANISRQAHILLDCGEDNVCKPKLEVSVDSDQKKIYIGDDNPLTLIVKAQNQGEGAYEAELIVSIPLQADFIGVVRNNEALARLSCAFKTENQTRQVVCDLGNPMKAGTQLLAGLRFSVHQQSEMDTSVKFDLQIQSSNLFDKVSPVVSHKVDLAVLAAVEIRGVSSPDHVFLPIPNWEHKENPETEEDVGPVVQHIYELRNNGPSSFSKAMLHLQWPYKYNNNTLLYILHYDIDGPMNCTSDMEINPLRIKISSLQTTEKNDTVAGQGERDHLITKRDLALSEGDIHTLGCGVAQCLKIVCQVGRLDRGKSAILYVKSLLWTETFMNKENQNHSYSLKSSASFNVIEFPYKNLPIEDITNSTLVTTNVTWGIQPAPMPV
T2 sequence (P18564 22-709 limits assumed): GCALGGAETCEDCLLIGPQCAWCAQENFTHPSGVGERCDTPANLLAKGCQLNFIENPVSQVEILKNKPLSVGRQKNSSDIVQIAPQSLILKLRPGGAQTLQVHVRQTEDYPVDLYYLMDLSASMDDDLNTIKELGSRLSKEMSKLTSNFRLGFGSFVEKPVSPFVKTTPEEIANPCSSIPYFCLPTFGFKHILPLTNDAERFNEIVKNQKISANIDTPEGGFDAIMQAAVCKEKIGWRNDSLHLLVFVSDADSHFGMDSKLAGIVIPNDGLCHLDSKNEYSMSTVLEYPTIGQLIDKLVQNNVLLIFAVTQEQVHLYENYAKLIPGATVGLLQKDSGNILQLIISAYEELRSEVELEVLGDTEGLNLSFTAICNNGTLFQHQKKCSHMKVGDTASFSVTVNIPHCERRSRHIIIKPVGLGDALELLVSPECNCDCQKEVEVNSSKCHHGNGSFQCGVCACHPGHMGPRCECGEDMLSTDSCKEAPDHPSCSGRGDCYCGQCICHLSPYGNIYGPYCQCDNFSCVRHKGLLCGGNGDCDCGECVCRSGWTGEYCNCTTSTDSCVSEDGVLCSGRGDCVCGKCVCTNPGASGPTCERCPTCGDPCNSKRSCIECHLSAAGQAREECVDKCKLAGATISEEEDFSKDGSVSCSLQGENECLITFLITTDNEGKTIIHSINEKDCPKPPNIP
T1 sequence (P06756 31-1048): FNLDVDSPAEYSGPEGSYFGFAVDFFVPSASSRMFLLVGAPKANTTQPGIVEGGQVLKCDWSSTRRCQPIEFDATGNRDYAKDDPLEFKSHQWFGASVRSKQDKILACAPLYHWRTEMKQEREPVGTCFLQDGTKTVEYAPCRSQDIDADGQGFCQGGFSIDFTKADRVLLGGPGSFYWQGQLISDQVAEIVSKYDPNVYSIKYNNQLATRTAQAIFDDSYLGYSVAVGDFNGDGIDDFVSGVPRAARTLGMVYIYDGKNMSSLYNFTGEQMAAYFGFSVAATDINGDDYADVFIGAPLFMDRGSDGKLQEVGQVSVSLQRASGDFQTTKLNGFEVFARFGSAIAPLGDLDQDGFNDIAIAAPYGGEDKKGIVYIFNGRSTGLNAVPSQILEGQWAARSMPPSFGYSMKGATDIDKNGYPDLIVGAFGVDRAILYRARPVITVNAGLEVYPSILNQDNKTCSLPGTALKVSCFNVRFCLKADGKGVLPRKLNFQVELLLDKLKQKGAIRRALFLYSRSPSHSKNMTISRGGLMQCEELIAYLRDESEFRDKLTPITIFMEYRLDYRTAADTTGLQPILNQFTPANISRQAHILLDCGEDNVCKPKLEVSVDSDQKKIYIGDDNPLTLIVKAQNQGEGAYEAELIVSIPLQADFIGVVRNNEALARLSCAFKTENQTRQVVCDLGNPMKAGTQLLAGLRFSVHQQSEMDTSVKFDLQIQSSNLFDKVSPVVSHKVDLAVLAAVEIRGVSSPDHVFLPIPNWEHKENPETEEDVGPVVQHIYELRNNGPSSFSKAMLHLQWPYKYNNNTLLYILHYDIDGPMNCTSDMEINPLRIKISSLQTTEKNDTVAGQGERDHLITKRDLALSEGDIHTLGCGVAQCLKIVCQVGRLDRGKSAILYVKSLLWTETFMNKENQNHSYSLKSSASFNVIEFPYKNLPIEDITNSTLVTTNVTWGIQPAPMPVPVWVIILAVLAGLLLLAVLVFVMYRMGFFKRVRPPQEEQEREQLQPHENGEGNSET
T1 sequence (P18564 22-788): as the sequence (P18564 22-788 limits assumed) above

For `CC(C)C[C@H](NC(=O)[C@H](Cc1cnc[nH]1)NC(=O)[C@H](CCCNC(=N)N)NC(=O)[C@H](C)NC(=O)[C@H](Cc1cnc[nH]1)NC(=O)[C@@H](NC(=O)[C@@H](NC(=O)[C@@H](NC(=O)[C@H](CC(C)C)NC(=O)[C@H](Cc1cnc[nH]1)NC(=O)[C@H](C)NC(=O)[C@H](CC(C)C)NC(=O)[C@H](CC(=O)O)NC(=O)CNC(=O)[C@H](CCCNC(=N)N)NC(=O)[C@H](C)NC(=O)[C@H](CO)NC(=O)[C@H](C)NC(=O)[C@@H](NC(=O)[C@@H](N)Cc1ccc(O)cc1)[C@@H](C)O)[C@@H](C)O)[C@@H](C)O)[C@@H](C)O)C(=O)O` [A20FMDV1], in assay [1], the 50% inhibitory concentration (IC50) was 38.2 ± 31.1 µM. For the same molecule, the “binding to A375Pβ6puro” value in assay [2] is given as “binding to A375Pβ6puro at 1 μM”. In addition, the “binding to A375Ppuro” value in assay [3] is recorded as “did not bind to A375Ppuro”.
With `CC(C)C[C@H](NC(=O)[C@H](CC(=O)O)NC(=O)CNC(=O)[C@H](CCCNC(=N)N)NC(=O)[C@H](CC(C)C)NC(=O)[C@H](CC(N)=O)NC(=O)[C@@H]1CCCN1C(=O)[C@@H](N)C(C)C)C(=O)N[C@@H](CCC(N)=O)C(=O)N[C@H](C(=O)N[C@@H](CC(C)C)C(=O)N[C@@H](C)C(=O)O)C(C)C` [DD19], the IC50 in assay [4] worked out at 190 µM; in assay [5], 0.085 µM. Moreover, the “VB6 adhesion to LAP in the presence of peptide” value in assay [1] is “the same as adhesion in the absence of peptide”.
Turning to `CC[C@H](C)[C@H](NC(=O)[C@@H](NC(=O)[C@H](C)NC(=O)[C@H](CC(C)C)NC(=O)[C@H](CC(=O)O)NC(=O)CNC(=O)[C@H](CCCNC(=N)N)NC(=O)[C@H](CCCNC(=N)N)NC(=O)CNC(=O)[C@@H](NC(=O)[C@@H](NC(=O)[C@@H](N)Cc1ccccc1)[C@@H](C)O)[C@@H](C)O)[C@@H](C)O)C(=O)O` [DD2] (H-FTTGRRGDLATI-OH; N-terminus and C-terminus assumed), the “effect on VB6 adhesion to LAP” value in assay [1] was “little effect”. The same molecule gave an IC50 in assay [5] of 0.0309 µM.
Consider `CC[C@H](C)[C@H](NC(=O)[C@@H](NC(=O)[C@H](C)NC(=O)[C@H](CC(C)C)NC(=O)[C@H](CC(=O)O)NC(=O)CNC(=O)[C@H](CCCNC(=N)N)NC(=O)[C@H](CCCNC(=N)N)NC(=O)CNC(=O)[C@@H](NC(=O)[C@@H](NC(=O)[C@H](Cc1ccccc1)NC(=O)CN)[C@@H](C)O)[C@@H](C)O)[C@@H](C)O)C(=O)N[C@@H](Cc1cnc[nH]1)C(=O)NCC(=O)N[C@@H](CCSC)C(=O)N[C@@H](CC(N)=O)C(=O)N[C@@H](CCCNC(=N)N)C(=O)N1CCC[C@H]1C(=O)N[C@@H](Cc1ccccc1)C(=O)O` [A20LAP], for which the “adhesion of 3T3β6.19 to LAP, % of control cell adhesion” value in assay [4] was 32±7%. Moreover, in assay [1], the IC50 turned out to be 28.7 ± 11 µM and the “effect on VB6 adhesion to LAP” value was “completely blocks cell adhesion”. For the same molecule, the “binding to A375Pβ6puro” value in assay [2] was “bound to both cell lines at 10 μM and 1 μM”. Moreover, the “binding of biotinylated peptide to immobilised rsαvβ6” value in assay [6] is on record as “bound more than A20FMDV1”. In addition, in assay [3], the “binding to A375Ppuro” value is “bound to both cell lines at 10 μM and 1 μM”.
Consider `CC[C@H](C)[C@H](NC(=O)[C@@H](NC(=O)[C@H](C)NC(=O)[C@H](CC(C)C)NC(=O)[C@H](CC(=O)O)NC(=O)CNC(=O)[C@H](CCCNC(=N)N)NC(=O)[C@H](CCCNC(=N)N)NC(=O)CNC(=O)[C@@H](N)[C@@H](C)O)[C@@H](C)O)C(=O)O` [DD3] (H-TGRRGDLATI-OH; N-terminus and C-terminus assumed), for which, in assay [4], the “adhesion of 3T3β6.19 to LAP, % of control cell adhesion” value is reported as 79±22%. Moreover, in assay [1], the “effect on VB6 adhesion to LAP” value is “little effect”. In addition, the IC50 in assay [5] was 0.0226 µM.

In general, IC50 refers to the point on the concentration scale where inhibition reaches its midpoint. Higher therefore signals weaker potency.
